Target: T1, glucocorticoid receptor (GR) (Homo sapiens, UniProt P04150)
T1 sequence (P04150 521-777): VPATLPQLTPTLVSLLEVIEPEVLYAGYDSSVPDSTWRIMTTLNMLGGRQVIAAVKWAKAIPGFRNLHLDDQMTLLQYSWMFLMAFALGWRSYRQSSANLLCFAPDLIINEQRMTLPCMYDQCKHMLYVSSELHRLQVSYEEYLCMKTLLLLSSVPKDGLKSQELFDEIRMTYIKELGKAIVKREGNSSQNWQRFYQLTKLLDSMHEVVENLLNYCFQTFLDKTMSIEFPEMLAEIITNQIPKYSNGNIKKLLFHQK
Test: Assay for agonist activity on glucocorticoid receptor (luciferase reporter, HEK293 cells transfected with pBIND-GR plasmid)
Assay type: cell-based
Details: HEK293 cells transfected with pBIND-GR, luciferase signal; read-out: GR agonist EC50
Experimental: Pharmacological Example 1: Assay for Agonist Activity on Glucocorticoid Receptor (GR)
The test compounds were subjected to a 4-fold serial dilution starting from an initial concentration of 10 µ M, generating a 10-point concentration gradient with duplicate wells for each concentration. The blank control consisted of 0.1 % DMSO.
The HEK293 stable cell line […] transfected with glucocorticoid receptor (GR) (ICE Bioscience, Lot No. TYP-20220519) was cultured in Dulbecco's Modified Eagle Medium (DMEM) supplemented with 10% fetal bovine serum (FBS) and 200 µ g/ml Hygromycin B in a cell incubator containing 5% CO2 at 37 °C. The spent medium was aspirated and the cells were washed once with phosphate-buffered saline (PBS). Then, 1 mL of TrypLE™ Express solution was added, and the cells were incubated at 37 °C for approximately 2 min. When the cells detached from the bottom of the cell culture dish, approximately 5 mL of pre-warmed complete medium at 37 °C was added. The cell suspension was gently pipetted with a pipette to dissociate clumped cells. The cell suspension was transferred to a sterile centrifuge tube and centrifuged at 1000 rpm for 5 min to pellet the cells for experiments or subculture.
HEK293 cells were digested and seeded into 6-cm culture dishes. The pBIND-GR plasmid was transfected into the HEK293 cells using a transfection reagent, resulting in HEK293 cells successfully transfected with the pBIND-GR plasmid. The cells were resuspended in phenol red-free DMEM medium containing 5% charcoal-stripped serum, counted, and then seeded into 96-well plates. The test compounds were added, and the plates were then incubated in an incubator. The luminescence signal values were measured using a multimode microplate reader following the instructions of the luciferase assay kit. The EC50 values of each test compound were calculated using the nonlinear fitting formula with GraphPad Prism 8.0 software.

Compound	EC50
C[C@]12C=CC(=O)C=C1CC[C@H]1[C@@H]3C[C@H]4OC(c5ccc(NC6CCOC6=O)cc5)O[C@@]4(C(=O)CO)[C@@]3(C)C[C@H](O)[C@@]12F (stereo partly drawn) [Compound 42, (6aS,6bR,7S,8aS,8bS,11aR,12aS,12bS)-6b-Fluoro-7-hydroxy-8b-(2-hydroxyacetyl)-6a,8a-dimethyl-10-(4-((2-oxotetrahydrofuran-3-yl)amino)phenyl)-1,2,6a,6b,7,8,8a,8b,11a,12,12a,12b-dodecahy dro-4H-naphtho[2',1':4,5]indeno[1,2-d][1,3]dioxol-4-one]	19.5 nM
C[C@]12C=CC(=O)C=C1CC[C@H]1[C@@H]3C[C@H]4OC(c5ccc(CS(=O)(=O)C6CCOC6=O)cc5)O[C@@]4(C(=O)CO)[C@@]3(C)C[C@H](O)[C@@]12Cl (stereo partly drawn) [Compound 60, (6aS,6bR,7S,8aS,8bS,11aR,12aS,12bS)-6b-Chloro-7-hydroxy-8b-(2-hydroxyacetyl)-6a,8a-dimethyl-10-(4-(((2-oxotetrahydrofuran-3-yl)sulfonyl)methyl)phenyl)-1,2,6a,6b,7,8,8a,8b,11a,12,12a,12b-dodecahydro-4H-naphtho[2',1':4,5]indeno[1,2-d][1,3]dioxol-4-one]	3.5 nM
C[C@]12C=CC(=O)C=C1CC[C@@H]1[C@@H]2[C@@H](O)C[C@@]2(C)[C@H]1C[C@H]1OC(c3ccc(COC4COC(=O)C4)cc3)O[C@]12C(=O)CO (stereo partly drawn) [Compound 31, (6aR,6bS, 7S,8aS,8bS,11aR,12aS,12bS)-7-Hydroxy-8b-(2-hydroxyacetyl)-6a,8a-dimethyl-10-(4-(( (5-oxotetrahydrofuran-3-yl)oxy)methyl)phenyl)-1,2,6a,6b,7,8,8a,8b,11a,12,12a,12b-dodecahydro-4H-naphtho[2',1':4,5]indeno[1,2-d][1,3]dioxol-4-one]	8.13 nM
C[C@]12C=CC(=O)C=C1CC[C@@H]1[C@@H]2[C@@H](O)C[C@@]2(C)[C@H]1C[C@H]1OC(c3ccc(CSC4CCOC4=O)cc3)O[C@]12C(=O)CO (stereo partly drawn) [Compound 29, (6aR,6bS, 7S,8aS,8bS,11aR,12aS,12bS)-7-Hydroxy-8b-(2-hydroxyacetyl)-6a,8a-dimethyl-10-(4-(( (2-oxotetrahydrofuran-3-yl)thio)methyl)phenyl)-1,2,6a,6b,7,8,8a,8b,11a,12,12a,12b-dodecahydro-4H-naphtho[2',1':4,5]indeno[1,2-d][1,3]dioxol-4-one]	3.66 nM
C[C@]12C=CC(=O)C=C1CC[C@H]1[C@@H]3C[C@H]4OC(c5ccc(COC6COC(=O)C6)cc5)O[C@@]4(C(=O)CO)[C@@]3(C)C[C@H](O)[C@@]12Cl (stereo partly drawn) [Compound 25, (6aS,6bR,7S,8aS,8bS,11aR,12aS,12bS)-6b-Chloro-7-hydroxy-8b-(2-hydroxyacetyl)-6a,8a-dimethyl-10-(4-(((5-oxotetrahydrofuran-3-yl)oxy)methyl)phenyl)-1,2,6a,6b,7,8,8a,8b,11a,12,12a,12b-do decahydro-4H-naphtho[2',1':4,5]indeno[1,2-d][1,3]dioxol-4-one]	1.3 nM
C[C@]12C=CC(=O)C=C1[C@@H](F)C[C@H]1[C@@H]3C[C@H]4OC(C5CCC(NC(=O)C6COC(=O)C6)CC5)O[C@@]4(C(=O)SCF)[C@@]3(C)C[C@H](O)[C@@]12F (stereo partly drawn) [Compound 6, S-(Fluoromethyl) (2S,6aS,6bR,7S,8aS,8bS,11aR,12aS,12bS)-2,6b-difluoro-7-hydroxy-6a,8a-dimethyl-4-oxo-10-(4-(5-oxotetrahydrofuran-3-carboxamido)cyclohexyl)-1,2,4,6a,6b,7,8,8a,11a,12,12a,12b-dodecahydro-8bH-naphtho[2',1':4,5]indeno[1,2-d][1,3]dioxole-8b-carbothioate]	8.69 nM
C[C@]12C=CC(=O)C=C1CC[C@@H]1[C@@H]2[C@@H](O)C[C@@]2(C)[C@H]1C[C@H]1OC(c3ccc(COC4CCOC4=O)cc3)O[C@]12C(=O)CO (stereo partly drawn) [Compound 28, (6aR,6bS, 7S,8aS,8bS,11aR,12aS,12bS)-7-Hydroxy-8b-(2-hydroxyacetyl)-6a,8a-dimethyl-10-(4-(( (2-oxotetrahydrofuran-3-yl)oxy)methyl)phenyl)-1,2,6a,6b,7,8,8a,8b,11a,12,12a,12b-dodecahydro-4H-naphtho[2',1':4,5]indeno[1,2-d][1,3]dioxol-4-one]	4.24 nM
C[C@]12C=CC(=O)C=C1[C@@H](F)C[C@H]1[C@@H]3C[C@H]4OC(c5ccc(COC6COC(=O)C6)cc5)O[C@@]4(C(=O)CO)[C@@]3(C)C[C@H](O)[C@@]12F (stereo partly drawn) [Compound 10, (2S,6aS,6bR,7S,8aS,8bS,11aR,12aS,12bS)-2,6b-Difluoro-7-hydroxy-8b-(2-hydroxyacetyl)-6a,8a-dimethyl-10-(4-(((5-oxotetrahydrofuran-3-yl)oxy)methyl)phenyl)-1,2,6a,6b,7,8,8a,8b,11a,12,12a,1 2b-dodecahydro-4H-naphtho[2',1':4,5]indeno[1,2-d][1,3]dioxol-4-one]	2.65 nM
C[C@]12C=CC(=O)C=C1CC[C@@H]1[C@@H]2[C@@H](O)C[C@@]2(C)[C@H]1C[C@H]1OC(c3ccc(CNC4CCOC4=O)cc3)O[C@]12C(=O)CO (stereo partly drawn) [Compound 30, (6aR,6bS, 7S,8aS,8bS,11aR,12aS,12bS)-7-Hydroxy-8b-(2-hydroxyacetyl)-6a,8a-dimethyl-10-(4-(( (2-oxotetrahydrofuran-3-yl)amino)methyl)phenyl)-1,2,6a,6b,7,8,8a,8b,11a,12,12a,12b-dodecahydr o-4H-naphtho[2',1':4,5]indeno[1,2-d][1,3]dioxol-4-one]	7.2 nM
C[C@]12C=CC(=O)C=C1[C@@H](F)C[C@H]1[C@@H]3C[C@H]4OC(c5ccc(CSC6CCOC6=O)cn5)O[C@@]4(C(=O)CO)[C@@]3(C)C[C@H](O)[C@@]12F (stereo partly drawn) [Compound 49, (2S,6aS,6bR,7S,8aS,8bS,11aR,12aS,12bS)-2,6b-Difluoro-7-hydroxy-8b-(2-hydroxyacetyl)-6a,8a-dimethyl-10-(5-(((2-oxotetrahydrofuran-3-yl)thio)methyl)pyridin-2-yl)-1,2,6a,6b,7,8,8a,8b,11a,12, 12a,12b-dodecahydro-4H-naphtho[2',1':4,5]indeno[1,2-d][1,3]dioxol-4-one]	1.12 nM
C[C@]12C=CC(=O)C=C1CC[C@@H]1[C@@H]2[C@@H](O)C[C@@]2(C)[C@H]1C[C@H]1OC(c3ccc(CSC4COC(=O)C4)cc3C#N)O[C@]12C(=O)CO (stereo partly drawn) [Compound 32, 2-((6aR,6bS,7S,8aS,8bS,11aR,12aS,12bS)-7-Hydroxy-8b-(2-hydroxyacetyl)-6a,8a-dimethyl-4-oxo-2,4,6a,6b,7,8,8a,8b,11a,12,12a,12b-dodecahydro-1H-naphtho[2',1':4,5]indeno[1,2-d][1,3]dioxol-10-yl)-5-(((5-oxotetrahydrofuran-3-yl)thio)methyl)benzonitrile]	3.67 nM
C[C@]12C=CC(=O)C=C1CC[C@H]1[C@@H]3C[C@H]4OC(c5ccc(CC6CCOC6=O)cc5)O[C@@]4(C(=O)CO)[C@@]3(C)C[C@H](O)[C@@]12F (stereo partly drawn) [Compound 43, (6aS,6bR,7S,8aS,8bS,11aR,12aS,12bS)-6b-Fluoro-7-hydroxy-8b-(2-hydroxyacetyl)-6a,8a-dimethyl-10-(4-((2-oxotetrahydrofuran-3-yl)methyl)phenyl)-1,2,6a,6b,7,8,8a,8b,11a,12,12a,12b-dodecah ydro-4H-naphtho[2',1':4,5]indeno[1,2-d][1,3]dioxol-4-one]	7.71 nM
C[C@]12C=CC(=O)C=C1CC[C@H]1[C@@H]3C[C@H]4OC(c5ccc(CSC6COC(=O)C6)cc5)O[C@@]4(C(=O)CCl)[C@@]3(C)C[C@H](O)[C@@]12Cl (stereo partly drawn) [Compound 39, (6aS,6bR,7S,8aS,8bS,11aR,12aS,12bS)-6b-Chloro-8b-(2-chloroacetyl)-7-hydroxy-6a,8a-dimethyl-10-(4-(((5-oxotetrahydrofuran-3-yl)thio)methyl)phenyl)-l,2,6a,6b,7,8,8a,8b,11a,12,12a,12b-dode cahydro-4H-naphtho[2',1':4,5]indeno[1,2-d][1,3]dioxol-4-one]	3.31 nM
C[C@]12C=CC(=O)C=C1CC[C@H]1[C@@H]3C[C@H]4OC(c5cnc(CSC6CCOC6=O)nc5)O[C@@]4(C(=O)CO)[C@@]3(C)C[C@H](O)[C@@]12Cl (stereo partly drawn) [Compound 54, (6aS,6bR,7S,8aS,8bS,11aR,12aS,12bS)-6b-Chloro-7-hydroxy-8b-(2-hydroxyacetyl)-6a,8a-dimethyl-10-(2-(((2-oxotetrahydrofuran-3-yl)thio)methyl)pyrimidin-5-yl)-1,2,6a,6b,7,8,8a,8b,11a,12,12a, 12b-dodecahydro-4H-naphtho[2',1':4,5]indeno[1,2-d][1,3]dioxol-4-one]	5.64 nM

Reference: EP4635969A1, “NOVEL GLUCOCORTICOID, METHOD FOR PREPARING SAME, AND USE THEREOF” (Tianjin Pharmaceutical Biotechnology Co., Ltd., priority 2022, dated 2024)
